Assay results taken from US8153413B2, “High alkaline protease and use thereof” (Japan Agency for Marine-Earth Science and Technology, priority 2004, dated 2012).
Entries after “also recorded” stand apart in the source; their conditions may differ. Where two headings read alike, the source gives them in different places. * marks the point of attachment. butyroxycarboxy = not defined here; pNA = O=[N+]([O-])c1ccc(N*)cc1

Legend:
Type in all cases: biochemical, Alkaliphillus transvaalensis
alkaline protease ALTP [1] = details: for Residual activity (%): pH 10
alkaline protease ALTP [2] = assay: Influence of inhibitors on residual activity
Method: Each inhibitor was added to 20 mmol/L phosphate buffer (pH 7) at a predetermined concentration, and the invention enzyme was added thereto. The solution was warmed at 30° C. for 20 minutes. Subsequently, the resulting solution was approximately diluted with 50 mmol/L borate buffer (pH 10), and the residual activity was measured.

alkaline protease ALTP [3] = assay: Influence of surfactants on residual activity (casein method); details: for Residual activity (%): pH 9.0, 40° C., 4 hours, time 0 = 100%
Method: Influence of surfactants on alkaline protease ALTP of the invention was examined. That is, the invention enzyme solution was added to 0.1 mol/L Tris-hydrochloride buffer (pH 9.0), and each of various surfactants shown in Table 4 was added to the solution. The treatment was conducted at 40° C. for 4 hours. Subsequently, the solution was properly diluted with 50 mmol/L borate buffer (pH 10.5) containing 2 mmol/L calcium chloride, and the residual activity was measured by the casein method. The residual activity was expressed in terms of a relative value when an activity value (treatment time 0 minute) immediately after addition of the enzyme to each sample was defined as 100%.

alkaline protease ALTP [4] = assay: Action on synthetic substrates (synthetic substrate method, p-nitroaniline release); details: for Relative activity (%): activity to AAPF = 100%, pH 10.0, 30° C., 10 minutes
Method: 0.9 ml of 100 mmol/L borate buffer (pH=10.0, containing 2 mmol/L calcium chloride) was mixed with 0.05 ml of a 50 mmol/L synthetic substrate solution (solution obtained by dissolving a p-nitroanilide derivative of an oligopeptide in dimethyl sulfoxide), and the mixture was warmed at 30° C. for 5 minutes. Then, 0.05 ml of the enzyme solution was added, and a reaction was conducted at 30° C. for 10 minutes. 2 ml of a 5% (w/v) citric acid solution was added to terminate the reaction. Absorbance at 420 nm was measured with a spectrophotometer to quantify liberated p-nitroaniline.
Herein, one unit (PU) of the enzyme referred to an amount of an enzyme required to liberate 1 μmol of p-nitroaniline for 1 minute under the foregoing reaction conditions.
Reactivity of alkaline protease ALTP of the invention with each synthetic substrate was measured using synthetic oligopeptide substrates shown in Table 6.
0.9 ml of 100 mmol/L borate buffer (pH=10.0, containing 2 mmol/L calcium chloride) was mixed with 0.05 ml of a 50 mmol/L synthetic substrate solution shown in Table 6. After the mixture was warmed at 30° C. for 5 minutes, 0.05 ml of the enzyme solution was added thereto, and the reaction was conducted at 30° C. for 10 minutes. 2 ml of a 5% (w/v) citric acid solution was added to terminate the reaction. Absorbance at 420 nm was measured using a spectrophotometer, and p-nitroaniline liberated was quantified.
Target sequence in this assay (as listed by the source): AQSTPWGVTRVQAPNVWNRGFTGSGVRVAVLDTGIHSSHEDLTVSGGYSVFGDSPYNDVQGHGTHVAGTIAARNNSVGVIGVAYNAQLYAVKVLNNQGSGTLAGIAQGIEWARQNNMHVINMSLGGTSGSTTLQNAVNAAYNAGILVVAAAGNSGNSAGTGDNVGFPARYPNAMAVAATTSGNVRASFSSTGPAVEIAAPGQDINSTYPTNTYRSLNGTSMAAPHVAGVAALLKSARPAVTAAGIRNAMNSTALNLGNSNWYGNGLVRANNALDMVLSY

[5] = inhibitor 0.1 mM, pH 7, 30° C., 20 minutes
[6] = inhibitor 1.0 mM, pH 7, 30° C., 20 minutes

## [Ba+2].[Cl-].[Cl-] [BaCl2]
Alkaline protease ALTP [1]; concentration of 1 mM
  inhibition by metal ion: not inhibited
Alkaline protease ALTP [1]
  Residual activity (%): 100%

## CC(C)C[C@H](NC(=O)[C@@H](O)[C@H](N)Cc1ccccc1)C(=O)O [Bestatin]
Alkaline protease ALTP [2]; [5]
  Residual activity (%): 106%

## [Ca+2].[Cl-].[Cl-] [CaCl2]
Alkaline protease ALTP [1]; concentration of 1 mM
  inhibition by metal ion: not inhibited
Alkaline protease ALTP [1]
  Residual activity (%): 118%

## [Cl][Cd][Cl] [CdCl2]
Alkaline protease ALTP [1]; concentration of 1 mM
  inhibition by metal ion: not inhibited
Alkaline protease ALTP [1]
  Residual activity (%): 100%

## CC(C)C[C@H](NC(=O)[C@@H](NC(=O)N[C@@H](Cc1ccccc1)C(=O)O)[C@@H]1CCN=C(N)N1)C(=O)N[C@H](C=O)Cc1ccccc1 [Chymostatin]
Alkaline protease ALTP [2]; 30 ppm
  inhibition: completely inhibited
Alkaline protease ALTP [2]; inhibitor 30 ppm, pH 7, 30° C., 20 minutes
  Residual activity (%): 0%

## [Cl-].[Cl-].[Co+2] [CoCl2]
Alkaline protease ALTP [1]
  inhibition by metal ion: not inhibited
  Residual activity (%): 92%

## [Cl][Cu][Cl] [CuCl2]
Alkaline protease ALTP [1]; concentration of 1 mM
  inhibition by metal ion: not inhibited
Alkaline protease ALTP [1]
  Residual activity (%): 109%

## O=C(O)CN(CCN(CC(=O)O)CC(=O)O)CC(=O)O [EDTA, ethylenediamine tetraacetic acid]
Alkaline protease ALTP [2]; 100 mM
  inhibition: little inhibited; also recorded: not inhibited
Alkaline protease ALTP [2]; inhibitor 100 mM, pH 7, 30° C., 20 minutes
  Residual activity (%): 100%

## [Cl][Fe][Cl] [FeCl2]
Alkaline protease ALTP [1]
  Residual activity (%): 120%

## [Cl][Fe]([Cl])[Cl] [FeCl3]
Alkaline protease ALTP [1]
  Residual activity (%): 110%

## [Cl][Hg][Cl] [HgCl2]
Alkaline protease ALTP [1]; concentration of 1 mM
  inhibition by metal ion: inhibited
Alkaline protease ALTP [1]
  Residual activity (%): 15%

## O=C(O)CI [Iodine acetate]
Alkaline protease ALTP [2]; pH 7
  Residual activity (%): 104%

## [Cl-].[K+] [KCl]
Alkaline protease ALTP [1]; concentration of 1 mM
  inhibition by metal ion: not inhibited
Alkaline protease ALTP [1]
  Residual activity (%): 111%

## CC(=O)N[C@@H](CC(C)C)C(=O)N[C@@H](CC(C)C)C(=O)N[C@H](C=O)CCCNC(=N)N [Leupeptin]
Alkaline protease ALTP [2]; [5]
  Residual activity (%): 100%

## [Cl-].[Li+] [LiCl2]
Alkaline protease ALTP [1]; concentration of 1 mM
  inhibition by metal ion: not inhibited
Alkaline protease ALTP [1]
  Residual activity (%): 114%

## [Cl-].[Cl-].[Mg+2] [MgCl2]
Alkaline protease ALTP [1]; concentration of 1 mM
  inhibition by metal ion: not inhibited
Alkaline protease ALTP [1]
  Residual activity (%): 105%

## [Cl][Mn][Cl] [MnCl2]
Alkaline protease ALTP [1]; concentration of 1 mM
  inhibition by metal ion: not inhibited
Alkaline protease ALTP [1]
  Residual activity (%): 113%

## O=C1CCC(=O)N1Br [N-bromosuccinic acid imide]
Alkaline protease ALTP [2]; [6]
  Residual activity (%): 104%

## [Cl-].[Na+] [NaCl]
Alkaline protease ALTP [1]
  inhibition by metal ion: not inhibited
  Residual activity (%): 112%

## [Cl][Ni][Cl] [NiCl2]
Alkaline protease ALTP [1]; concentration of 1 mM
  inhibition by metal ion: not inhibited
Alkaline protease ALTP [1]
  Residual activity (%): 94%

## O=S(=O)(F)Cc1ccccc1 [PMSF, phenylmethanesulfonyl fluoride]
Alkaline protease ALTP [2]; 1 mM
  inhibition: completely inhibited
Alkaline protease ALTP [2]; [6]
  Residual activity (%): 0%

## [Cl][Pb][Cl] [PbCl2]
Alkaline protease ALTP [1]; concentration of 1 mM
  inhibition by metal ion: not inhibited
Alkaline protease ALTP [1]
  Residual activity (%): 115%

## [Cl][Sn][Cl] [SnCl2]
Alkaline protease ALTP [1]; concentration of 1 mM
  inhibition by metal ion: not inhibited
Alkaline protease ALTP [1]
  Residual activity (%): 108%

## CCCCCCCCCCCCOS(=O)(=O)[O-].[Na+] [Sodium dodecyl sulfate]
Alkaline protease ALTP [2]; 1 mM
  inhibition: little inhibited
Alkaline protease ALTP [3]
  inhibition of activity by surfactant: not inhibited
Alkaline protease ALTP [3]; surfactant 10.0%
  Residual activity (%): 104%

## [Cl-].[Cl-].[Zn+2] [ZnCl2]
Alkaline protease ALTP [1]; concentration of 1 mM
  inhibition by metal ion: not inhibited
Alkaline protease ALTP [1]
  Residual activity (%): 121%

## O=C(O)c1cc[c]([Hg][Cl])cc1 [p-chloromercuribenzoic acid]
Alkaline protease ALTP [2]; 1 mM
  inhibition: little inhibited

## NC(N)=O [urea]
Alkaline protease ALTP [2]; 0.5 M
  inhibition: little inhibited

## Linear sodium alkylbenzene sulfonate
Alkaline protease ALTP [3]
  inhibition of activity by surfactant: not inhibited
Alkaline protease ALTP [3]; surfactant 1.0%
  Residual activity (%): 98%

## N- succinyl-Gly-Gly-Phe-p-nitroanilide (GGF; HELM PEPTIDE1{[O=C(O)CCC(=O)[*:2]].G.G.F.[O=[N+]([O-])c1ccc(N[*:1])cc1]}$$$$V2.0; SMILES O=C(O)CCC(=O)NCC(=O)NCC(=O)N[C@@H](Cc1ccccc1)C(=O)Nc1ccc([N+](=O)[O-])cc1) [synthetic substrate]
Alkaline protease ALTP [4]
  activity to further synthetic substrates: showed activity

## N-carboxybenzoxy-Phe-Val-Arg-p-nitroanilide (carboxybenzoxy-Phe-Val-Arg-pNA) [Z-FVR, synthetic substrate]
Alkaline protease ALTP [4]
  activity to further synthetic substrates: showed activity

## N-glutaryl-Ala-Ala-Pro-Leu-p-nitroanilide (AAPL; HELM PEPTIDE1{[O=C(O)CCCC(=O)[*:2]].A.A.P.L.[O=[N+]([O-])c1ccc(N[*:1])cc1]}$$$$V2.0; SMILES CC(C)C[C@H](NC(=O)[C@@H]1CCCN1C(=O)[C@H](C)NC(=O)[C@H](C)NC(=O)CCCC(=O)O)C(=O)Nc1ccc([N+](=O)[O-])cc1) [synthetic substrate]
Alkaline protease ALTP [4]
  Relative activity (%): 91%

## N-methoxysuccinyl- Ala-Ile-Pro-Met-p-nitroanilide (AIPM; HELM PEPTIDE1{[COC(=O)CCC(=O)[*:2]].A.I.P.M.[O=[N+]([O-])c1ccc(N[*:1])cc1]}$$$$V2.0; SMILES CC[C@H](C)[C@H](NC(=O)[C@H](C)NC(=O)CCC(=O)OC)C(=O)N1CCC[C@H]1C(=O)N[C@@H](CCSC)C(=O)Nc1ccc([N+](=O)[O-])cc1) [synthetic substrate]
Alkaline protease ALTP [4]
  Relative activity (%): 90%

## N-p-tosyl-Gly-Pro-Lys-p-nitroanilide ({p‑tosyl}-Gly-Pro-Lys-pNA) [To-GPK, synthetic substrate]
Alkaline protease ALTP [4]
  activity to further synthetic substrates: showed activity

## N-succinyl-Ala-Ala-Ala-p-nitroanilide [AAA]
Alkaline protease ALTP [4]
  activity to further synthetic substrates: showed activity

## N-succinyl-Ala-Ala-Pro-Met-p-nitroanilide (AAPM; HELM PEPTIDE1{[O=C(O)CCC(=O)[*:2]].A.A.P.M.[O=[N+]([O-])c1ccc(N[*:1])cc1]}$$$$V2.0; SMILES CSCC[C@H](NC(=O)[C@@H]1CCCN1C(=O)[C@H](C)NC(=O)[C@H](C)NC(=O)CCC(=O)O)C(=O)Nc1ccc([N+](=O)[O-])cc1) [synthetic substrate]
Alkaline protease ALTP [4]
  Relative activity (%): 74%

## N-succinyl-Ala-Ala-Pro-Phe-p-nitroanilide [AAPF]
Alkaline protease ALTP [4]
  Relative activity (%): 100%

## N-succinyl-Ala-Ala-Val-Ala-p- nitroanilide (AAVA; HELM PEPTIDE1{[O=C(O)CCC(=O)[*:2]].A.A.V.A.[O=[N+]([O-])c1ccc(N[*:1])cc1]}$$$$V2.0; SMILES CC(C)[C@H](NC(=O)[C@H](C)NC(=O)[C@H](C)NC(=O)CCC(=O)O)C(=O)N[C@@H](C)C(=O)Nc1ccc([N+](=O)[O-])cc1) [synthetic substrate]
Alkaline protease ALTP [4]
  Relative activity (%): 4.6%

## N-succinyl-Ala-Ala-p-nitroanilide [AA]
Alkaline protease ALTP [4]
  activity to further synthetic substrates: showed activity

## Polyoxyethylene alkyl alcohol
Alkaline protease ALTP [3]
  inhibition of activity by surfactant: not inhibited
Alkaline protease ALTP [3]; surfactant 1.0%
  Residual activity (%): 107%

## Sodium alkane sulfonate
Alkaline protease ALTP [3]
  inhibition of activity by surfactant: not inhibited
Alkaline protease ALTP [3]; surfactant 10.0%
  Residual activity (%): 107%

## Sodium polyoxyethylene alkyl sulfate
Alkaline protease ALTP [3]
  inhibition of activity by surfactant: not inhibited
Alkaline protease ALTP [3]; surfactant 1.0%
  Residual activity (%): 99%

## Sodium α-olefin sulfonate
Alkaline protease ALTP [3]
  inhibition of activity by surfactant: not inhibited
Alkaline protease ALTP [3]; surfactant 1.0%
  Residual activity (%): 128%

## butyroxycarboxy-Leu-Ser- Thr-Arg-p-nitroanilide (butyroxycarboxy-LSTR-pNA; reading uncertain) [synthetic substrate]
Alkaline protease ALTP [4]
  activity to further synthetic substrates: showed activity

## triton X-100
Alkaline protease ALTP [2]; 1%
  inhibition: little inhibited

## α-sulfo-fatty acid ester
Alkaline protease ALTP [3]
  inhibition of activity by surfactant: not inhibited
Alkaline protease ALTP [3]; surfactant 1.0%
  Residual activity (%): 106%
